Experimental data: patent US8586632B2, “Use of the irritating principal oleocanthal in olive oil, as well as structurally and functionally similar compounds” (Monell Chemical Senses Center, priority 2007, dated 2013)

Key:
[1] = test system: cultured rat trigeminal neurons; assay: Intracellular calcium level in cultured rat trigeminal neurons (ratiometric Fura2 imaging); type: cell-based; parameters: key to TG Neuron Activation: The highest scale (+++) was assigned to the analogs that had approximately the same magnitude of response and excited the same number of neurons as oleocanthal; ++ responses were assigned to analogs that elicited intermediate responses to an intermediated number of cells; The + responses were weak but detectable and were observed in very few cells; No detectable response is indicated by 0; conditions: for intracellular calcium response in trigeminal neurons (in words): cultured rat trigeminal neurons; for TG Neuron Activation: single concentration 5 micromolar, response relative to oleocanthal; for number of trigeminal neurons responding, as % of the response to oleocanthal: 5 micromolar oleocanthal = 100%
Protocol: Activity of synthetic oleocanthal analogs was assessed by measurement of the intracellular calcium level in cultured rat trigeminal neurons. Flavor or taste perception is made up of the sensory experience of three chemical senses: taste, smell, and chemical-induced irritation or pain. This third component is mainly determined by the impact of chemical stimuli that are transmitted to the brain via the trigeminal nerve.
Trigeminal ganglia were harvested from 1-3 day old Sprague-Dawley rat pups. Neurons were dissociated in Hanks Buffered Saline Solution (HBSS) with trypsin (0.0625%) for 15 minutes, collagenase (1 mg/ml) and DNase (0.1 mg/ml) for 45 minutes, and then were separated from myelin/debris using a 15/30/60% Percoll gradient. The neurons were plated on poly-1-lysine/laminin-coated coverslips in modified neurobasal medium supplemented with B27, 100 ng/ml Nerve Growth Factor (NGF) and kept at 37° C., 5% CO2. […] Intracellular calcium was measured ratiometrically using excitation at 340 and 380 nm and emission at 510 nm. Experiments were performed at 31-32° C. Neurons were stimulated by compounds in Ringers solution (pH=7.34) that flowed over the neurons for 15 sec.
Synthetic (−)oleocanthal and related analogs were dissolved in absolute ethanol and then added to Ringer's solution adjusted at pH=7.34 with a final ethanol concentration of less than 0.1%. The octanol-water partition coefficient (Log P), expressing compound lipophilicity, was calculated based on chemical structure with the Interactive Analysis Log P predictor website. In general, the higher the log P number, the greater the lipophilicity, and the greater the tendency of the compound to partition into the lipid phase of the cell membranes.
Oleocanthal activates rat trigeminal neurons; 5 microM of the olive oil irritant elicits a robust intracellular calcium increase in about 25 to about 35% of cultured rat trigeminal neurons (FIG. 6). Therefore, to assess the irritation potency of oleocanthal analogs and in order to avoid human consumption of unnatural compounds, activity was determined by measurement of the intracellular calcium level in cultured rat trigeminal neurons. […] Thus, both aldehyde groups, as well as unsaturation, are required to maintain full activity. […] Analog 11 is of particular interest. Like oleocanthal, analog 11 (or 4-DHPEA-EDA) is a secoiridoid derivative naturally present in extra virgin olive oil. Oleocanthal and 4-DHPEA-EDA formation occurs during olive oil production by enzymatic and chemical degradation of their respective precursors ligstroside and oleuropein, two glucosylated secoiridoids abundantly synthesized in unripe olives (FIG. 9). Oleocanthal and 4-DHPEA-EDA are structurally very similar—the sole difference being a second phenolic hydroxyl group in 4-DHPEA-EDA. […] For the experiment illustrated in FIG. 8, analog 13 (5, 10, 20 and 50 micomolar) was applied on a separate coverslip containing trigeminal neurons and activation was determined. This was followed by application of 5 micromolar oleocanthal to the same four coverslips. For each coverslip, the number of trigeminal neurons responding to oleocanthal was determined and defined as 100%. The number of trigeminal neurons responding to analog 13 corresponded to approximately 6% (5 micromolar analog 13), 25% (10 micromolar analog 13), 45% (20 micromolar analog 13) and 96% (50 micromolar analog 13) of the response to oleocanthal. For each coverslip, 18-20 trigeminal neurons were sensitive to oleocanthal. […] Analog 13 is very close in structure to oleocanthal (Table 2), lacking only a single carbon. […] While not wishing to be bound by any one theory, it is believed that the shorter chain of analog 13 pulls the rigid ring forward creating a steric obstruction to efficacious binding with the receptor.

[2] = test system: throat; assay: Throat irritation sensory test of synthetic oleocanthal in corn oil (two-alternative forced-choice); type: in vivo, human; conditions: for correct trials, 2AFC throat irritation: ten subjects
Protocol: Testing was double-blind and each was exposed to three sets of two samples, one of which was added synthesized oleocanthal and the other served as the blank control. The task was to indicated which of the pair was more irritating. […] Importantly, the effect was dose dependent (FIG. 2 open triangles, dashed line). Ten subjects were tested with non-irritating commercial corn oils presented neat and mixed with either synthesized (−)-oleocanthal or the bitter agent sucrose octaacetate (SOA) (Sigma-Aldrich). […] (−)-Oleocanthal was tested at the highest concentration identified in the ten rated oils, 200 μg/ml, and at one half and whole log steps more dilute 63.25 and 20 μg/ml. SOA was added to the corn oil (4×10^−4, 1×10^−4, 5×10^−5 M) to intensity match the irritation of the three levels of (−)-oleocanthal. Subjects participated in two-alternative forced-choice (2AFC) trials (four trials at every concentration for each subject) and in intensity ratings sessions (four ratings per each oil). For the 2AFC trials subjects were presented with two 3.0 ml corn oil samples with matching intensities of SOA and (−)-oleocanthal in ascending order, and were required to sample oils as described above. While blind to stimulus position, subjects were asked two questions on each trial, “Which of the two oils was more irritating in the throat?” and “Which one was more bitter?” At the 20 μg/ml & 5×10^−5 M level most subjects reported on some trials that the same oil was both the more irritating and the more bitter of the two. […] Subjects performed at chance when selecting among two unadulterated corn oils, when the correct choice was randomly assigned prior to testing. […] The other two concentrations were correct 39/40 and 40/40 trials. For the intensity rating trials subjects were presented with all eight oils in ascending order, counterbalanced for stimulus order and asked to rate the throat irritation and bitterness of every oil on a general labeled magnitude scale.

[3] = test system: oral irritation; conditions: reported, Anke et al. 1991; cited from earlier work

Compound	intracellular calcium response in trigeminal neurons (in words) [1]	TG Neuron Activation [1]	also measured
C/C=C(/CO)[C@@H](CCO)CC(=O)OCCc1ccc(O)cc1 [Analog 10]	did not elicit intracellular calcium increase	0	–
C/C=C(/C=O)[C@@H](CC=O)CC(=O)OCCc1ccccc1 [Analog 1]	–	+++	–
C/C=C(/C=O)[C@@H](CC=O)CC(=O)OCCCc1ccc(O)cc1 [Analog 8]	–	+++	–
C/C=C(/C=O)[C@@H](CC=O)CC(=O)OCc1ccc(O)cc1 [Analog 13]	small responses	+	number of trigeminal neurons responding, as % of the response to oleocanthal ([1]; 5 micromolar analog 13): approximately 6%; number of trigeminal neurons responding, as % of the response to oleocanthal ([1]; 10 micromolar analog 13): about 25%; number of trigeminal neurons responding, as % of the response to oleocanthal ([1]; 20 micromolar analog 13): ~45%; number of trigeminal neurons responding, as % of the response to oleocanthal ([1]; 50 micromolar analog 13): ~96%; multiple of concentration needed to reach the potency of oleocanthal ([1]; trigeminal neuron stimulation, FIG. 8): approximately 10 times
C/C=C(/C=O)[C@@H](CC=O)CC(=O)OC [Analog 6]	–	++	–
C/C=C1\[C@H](CC(=O)OCCc2ccc(O)cc2)C[C@@H](O)[C@H]1O [Analog 5]	did not elicit intracellular calcium increase	0	–
C/C=C(/C=O)[C@@H](CC=O)CC(=O)OCCCCC [Analog 7]	–	+++	–
C/C=C(/C=O)[C@@H](CCO)CC(=O)OCCc1ccc(O)cc1 [Analog 9]	did not elicit intracellular calcium increase	+	–
C/C=C(/C=O)[C@@H](CC=O)CC(=O)OCCc1ccccc1O [Analog 3]	–	+++	–
C/C=C(/C=O)[C@@H](CC=O)CC(=O)OCCc1ccc(O)cc1 [Oleocanthal (−), 2-(4-hydroxyphenyl)ethyl, 4-formyl-3-(2-oxoethyl)-4-hexenoic acid ester]	–	+++	correct trials, 2AFC throat irritation ([2]; 20 μg/ml in corn oil vs intensity-matched SOA): 24 out of 40; correct trials, 2AFC throat irritation ([2]; 63.25 μg/ml in corn oil vs intensity-matched SOA): 39/40; correct trials, 2AFC throat irritation ([2]; 200 μg/ml in corn oil vs intensity-matched SOA): 40/40; throat irritation (in words) ([2]; synthetic compound in corn oil): identical to oleocanthal isolated from premium olive oil; correct identification of the more irritating sample (2AFC) ([2]; three evaluators, three presentations each, corn oil, approx. twice the concentration in Falconaro olive oil, vs blank, p<0.01): 9 of 9; concentration near detection threshold levels in corn oil ([2]; throat irritation, 2AFC): ~20 µg/mL
C/C=C(/C=O)[C@@H](CC=O)CC(=O)OCCc1cccc(O)c1 [Analog 4]	–	+++	–
C/C=C(/C=O)[C@@H](CC=O)CC(=O)OCCc1ccc(O)c(O)c1 [Analog 11, 4-DHPEA-EDA]	–	+++	oral irritation (in words) [3]: very little oral irritation
CC[C@@H](C=O)[C@@H](CC=O)CC(=O)OCCc1ccc(O)cc1 [Analog 12]	did not elicit intracellular calcium increase	0	–
C/C=C(/C=O)[C@@H](CC=O)CC(=O)OCCc1ccc(F)cc1 [Analog 2]	–	+++	–
